Where two headings read alike, the source gives them in different places. Blank lines part the entries; values can stand above or below the molecule they belong to. Numbered stars: 1 amine (or outer) side, 2 acyl side, 3 side chain; on linkers, the order of the positions; unused ones are H or OH. Bridge positions count the residues as written; N and C are the ends. Square brackets hold non-standard residues; d marks the D form. Peptide text beside a SMILES is read from it. * marks the point of attachment. X1 = CC[C@H](C)[C@@H](N[*:1])[C@@H](O)CC(=O)O[C@H](C(=O)[C@H](C)C(=O)[*:2])C(C)C; NMeY = CN[C@@H](Cc1ccc(O)cc1)C(=O)O; dNMeL = CN[C@H](CC(C)C)C(=O)O; Pyruvoyl = CC(=O)C(=O)*
How the values were obtained:
CCRF-CEM cells = assay: XTT/MTS cytotoxicity, single agents and combinations, CCRF-CEM; settings: for Viability (% of control): single agent at its IC50 dose
SKI-DLCL cells [1] = assay: cells; settings: 96 h
SKI-DLCL cells [2] = settings: for IC50: 96 hours
K562 cells [3] = assay: XTT/MTS cytotoxicity, single agents and combinations, K562; settings: for Viability (% of control): K562, single agent at its IC50 dose
[4] = tested on: K562, CEM and SKI-DLCL cell lines; assay: Combination of IC20 aplidine with a dose range of additional drug (Table 1); type: cell-based
Description: Drug combination studies were carried out on established cell lines rather than primary cells. We studied three cell lines, viz. K562 as a model for acute myeloid leukemia, CEM representing acute lymphocytic leukemia and SKI-DLCL representing diffuse large cell lymphoma. Combination studies with IC20 and IC 50 dose of aplidine with a dose range of methotrexate, cytosine arabinoside and doxorubicin were tested to determine if aplidine could potentiate the effect of these drugs.

ALL-MOLT4 cells = settings: cited from earlier work
[5] = Determination of maximum tolerated dose in SCID mice; type: in vivo, C.B.-17 scid/scid (SCID) mice; settings: total dose given in five daily doses
Text: We have used an in vivo model of human lymphoma in SCID mice for this purpose. Specifically, we have used CCRF-CEMS cells and CB.17 scid/scid mice. We have experience with this model and have evaluated drug treatments using this xenograft (Lacerda J. F. et al. Blood 85 (10): 2675-2679 (1995)).

[6] = at maximum tolerated doses, clinical Phase I; except for mild lymphopenia; cited from earlier work
preB-ALL (DM4) cells = assay: Viability of primary preB-ALL (DM4) cells cultured with aplidine; type: cell-based, human
Description: (§1) Aplidine was tested against various primary cells from patients with hematologic malignancies. The cells used were: • fresh cells obtained from six chronic lymphocytic leukemia patients • primary cell from a patient with preB-ALL (DM4)
(§2) Patient samples were obtained with prior consent and CLL cells were isolated by density gradient centrifugation over histopaque. The media used was RPMI supplemented with 10% autologous serum and L-glutamine. The cultures were incubated with 10 nM aplidine and cell viability was measured days 3, 7,11 and 18 and compared with viability of untreated cells and STI 571 (0.5 mM).

[7] = solubilised, heat and light stress; cited from earlier work
[8] = tested on: AML and ALL samples from pediatric patients; settings: de novo or relapsed ALL and AML; cited from earlier work
K562 cells [9] = tested on: K562 cells
[10] = tested on: chronic lymphocytic leukemia (CLL) cells; assay: Viability of fresh primary CLL cells cultured with aplidine; type: cell-based, human
Description: as §1, §2

CEM-T leukemic cells = assay: In vivo antitumor effect in SCID mice xenograft model; settings: AraC alone at 50 mg/kg, intra-peritoneally
Description: SCID mice were inoculated subcutaneously in the right flank with 10^7 CEM-T leukemic cells. They were observed twice weekly for tumor formation at the site of inoculation. After establishment of palpable tumor, alidine was injected as single agent and in combination with several doses of AraC to determine the antitumor effect. Mice were randomized to receive alidine alone at doses of 0.75 mg/kg and 1 mg/kg, AraC alone at 50 mg/kg, or combination of Aplidine and AraC for all dose combinations. […] All drugs were administered intra-peritoneally, and tumor size was compared to a control group of mice not receiving any treatment and for combination groups, compared to tumor sizes with single agent treatment.

[11] = read-out: IC50 dose, single agent, 96 hours
[12] = SKI-DLCL, single agent at its IC50 dose
[13] = Homo sapiens, K562, 96 h, read-out: IC50 dose, single agent, K562, 96 hours
[14] = Homo sapiens, K562, No Aplidine
[15] = Homo sapiens, K562, with IC20 Aplidine (0.5 nM)
[16] = read-out: IC50 dose, single agent, SKI-DLCL

SMILES: O=C1c2c(O)ccc(O)c2C(=O)c2c(NCCNCCO)ccc(NCCNCCO)c21 [Mitox, mitoxantrone]
IC50 (CCRF-CEM cells; [11]): 30 nM
Viability (% of control) (CCRF-CEM cells): 56 % of control
IC50 (SKI-DLCL cells [1]; read-out: IC50 dose): 5 nM
Viability (% of control) (SKI-DLCL cells [2]; [12]): 50 % of control
IC50 (K562 cells [3]; [13]): 7.5 nM
Viability (% of control) (K562 cells [3]): 50.7 % of control

IC50 [4, 14]: 18 nM
IC50 [4, 15]: 1 nM
IC50 (SKI-DLCL cells [1]; read-out: IC50 dose): 5 nM
SMILES: COc1cccc2c1C(=O)c1c(O)c3c(c(O)c1C2=O)C[C@@](O)(C(=O)CO)C[C@@H]3O[C@H]1C[C@H](N)[C@H](O)[C@H](C)O1 [Dox, doxorubicin]
Viability (% of control) (SKI-DLCL cells [2]; [12]): 50 % of control

SMILES: CC[C@H](C)[C@H]1NC(=O)[C@@H](NC(=O)[C@@H](CC(C)C)N(C)C(=O)[C@@H]2CCCN2C(=O)C(C)=O)[C@@H](C)OC(=O)[C@H](Cc2ccc(OC)cc2)N(C)C(=O)[C@@H]2CCCN2C(=O)[C@H](CC(C)C)NC(=O)[C@@H](C)C(=O)[C@H](C(C)C)OC(=O)C[C@@H]1O [aplidine, Dehydrodidemnin B] (Pyruvoyl-P[dNMeL]T[X1]LP[NMeY](Me); ester 3-C)
IC50 (CCRF-CEM cells; [11]): 0.5 nM
VEGF secretion (ALL-MOLT4 cells): block VEGF secretion
IC50 (SKI-DLCL cells [1]; read-out: IC50 dose, single agent, SKI-DLCL, 96 hours): 0.5 to 1 nM
Viability (% of control) (SKI-DLCL cells [2]): 50 % of control
IC50 (SKI-DLCL cells [2]; [16]): 0.5 nM
maximum dose that can be tolerated (MTD) [5]: 1 mg/kg/week
myelotoxicity [6]: not myelotoxic
inhibition of preB-ALL cells in culture (preB-ALL (DM4) cells; FIG. 2): potent inhibitor
IC50 (preB-ALL (DM4) cells; Homo sapiens, 72 h, DM4 line, 3 day exposure): 10 nM
degradation under stress testing [7]: substantial degradation
concentration with in vitro cytotoxic activity [8]: 5 nM
IC50 (K562 cells [3]; [13]): 0.5 to 1 nM
IC50 (K562 cells [3]; read-out: IC50 dose, single agent, K562, 96 hours, listed as APL): 1 nM
Viability (% of control) (K562 cells [9]): 50 % of control
growth of CLL cells in culture ([10]; FIG. 1): inhibits growth
IC50 ([10]; Homo sapiens, CLL cell, 264 h, primary CLL samples, 11 day exposure): 10 nM

IC50 (SKI-DLCL cells [1]; read-out: IC50 dose): 160 nM
SMILES: C[C@H]1C[C@@H]2[C@H]([C@@H](O)C[C@@]3(C)[C@H]2CC[C@]3(O)C(=O)CO)[C@@]2(C)C=CC(=O)C=C12 [Metpred, methylprednisolone]
Viability (% of control) (SKI-DLCL cells [2]; [12]): 51 % of control

IC50 [4, 14]: 5 nM
IC50 [4, 15]: 0.5 nM
SMILES: CN(Cc1cnc2nc(N)nc(N)c2n1)c1ccc(C(=O)N[C@@H](CCC(=O)O)C(=O)O)cc1 [MTX, methotrexate]
IC50 (CCRF-CEM cells; [11]): 10 nM
Viability (% of control) (CCRF-CEM cells): 50 % of control

IC50 (SKI-DLCL cells [1]; read-out: IC50 dose): 4 nM
SMILES: CC[C@]1(O)C[C@@H]2CN(CCc3c([nH]c4ccccc34)[C@@](C(=O)OC)(c3cc4c(cc3OC)N(C)[C@H]3[C@@](O)(C(=O)OC)[C@H](OC(C)=O)[C@]5(CC)C=CCN6CC[C@]43[C@@H]65)C2)C1 [Vinb, vinblastine]
Viability (% of control) (SKI-DLCL cells [2]; [12]): 50 % of control

SMILES: Nc1ccn([C@@H]2O[C@H](CO)[C@@H](O)[C@@H]2O)c(=O)n1 [AraC, cytosine arabinoside]
IC50 (CCRF-CEM cells; read-out: IC50 dose of AraC, in combination with IC20 (APL), 96 hours, XTT): 0.8 nM
IC50 (CCRF-CEM cells; [11]): 10 nM
Viability (% of control) (CCRF-CEM cells): 56.4 % of control
IC50 ([4]; No Aplidine): 30 nM
IC50 ([4]; with IC20 Aplidine (0.5 nM)): 6 nM
Viability (% of control) (SKI-DLCL cells [2]; [12]): 50 % of control
IC50 (SKI-DLCL cells [2]; read-out: IC50 dose of AraC, SKI-DLCL, in combination with IC20 (APL), XTT): 1.6 nM
IC50 (SKI-DLCL cells [2]; [16]): 30 nM
in vivo antitumor effect (tumor growth) (CEM-T leukemic cells): tumor growth was inhibited but no tumor regression occurred
Viability (% of control) (K562 cells [3]): 50 % of control
IC50 (K562 cells [3]; read-out: IC50 dose, single agent, K562, 96 hours): 30 nM
